Assay results: paper PMC10673995, “Discovery of a novel cardiac-specific myosin modulator using artificial intelligence-based virtual screening” (Nature Communications, 2023)
“And” between values parts separate entries of the source, which are not always exact repeats. Equal values may be shown once.

Key:
[1] = target: T1, synthetic thick filaments formed from purified full-length bovine β-cardiac myosin (Bos taurus, UniProt Q9BE39); assay: mant-ATP chase single nucleotide turnover, synthetic thick filaments; type: biochemical; conditions: for Representative Traces (mant-ATP chase, fluorescence signal over time): Figure 3b
T1 construct: diluting full-length bovine cardiac myosin stock into assay buffer; from tissue; host or cells: bovine cardiac muscle (the text says isolated/purified and describes no preparation)
T1 sequence (Q9BE39 whole entry): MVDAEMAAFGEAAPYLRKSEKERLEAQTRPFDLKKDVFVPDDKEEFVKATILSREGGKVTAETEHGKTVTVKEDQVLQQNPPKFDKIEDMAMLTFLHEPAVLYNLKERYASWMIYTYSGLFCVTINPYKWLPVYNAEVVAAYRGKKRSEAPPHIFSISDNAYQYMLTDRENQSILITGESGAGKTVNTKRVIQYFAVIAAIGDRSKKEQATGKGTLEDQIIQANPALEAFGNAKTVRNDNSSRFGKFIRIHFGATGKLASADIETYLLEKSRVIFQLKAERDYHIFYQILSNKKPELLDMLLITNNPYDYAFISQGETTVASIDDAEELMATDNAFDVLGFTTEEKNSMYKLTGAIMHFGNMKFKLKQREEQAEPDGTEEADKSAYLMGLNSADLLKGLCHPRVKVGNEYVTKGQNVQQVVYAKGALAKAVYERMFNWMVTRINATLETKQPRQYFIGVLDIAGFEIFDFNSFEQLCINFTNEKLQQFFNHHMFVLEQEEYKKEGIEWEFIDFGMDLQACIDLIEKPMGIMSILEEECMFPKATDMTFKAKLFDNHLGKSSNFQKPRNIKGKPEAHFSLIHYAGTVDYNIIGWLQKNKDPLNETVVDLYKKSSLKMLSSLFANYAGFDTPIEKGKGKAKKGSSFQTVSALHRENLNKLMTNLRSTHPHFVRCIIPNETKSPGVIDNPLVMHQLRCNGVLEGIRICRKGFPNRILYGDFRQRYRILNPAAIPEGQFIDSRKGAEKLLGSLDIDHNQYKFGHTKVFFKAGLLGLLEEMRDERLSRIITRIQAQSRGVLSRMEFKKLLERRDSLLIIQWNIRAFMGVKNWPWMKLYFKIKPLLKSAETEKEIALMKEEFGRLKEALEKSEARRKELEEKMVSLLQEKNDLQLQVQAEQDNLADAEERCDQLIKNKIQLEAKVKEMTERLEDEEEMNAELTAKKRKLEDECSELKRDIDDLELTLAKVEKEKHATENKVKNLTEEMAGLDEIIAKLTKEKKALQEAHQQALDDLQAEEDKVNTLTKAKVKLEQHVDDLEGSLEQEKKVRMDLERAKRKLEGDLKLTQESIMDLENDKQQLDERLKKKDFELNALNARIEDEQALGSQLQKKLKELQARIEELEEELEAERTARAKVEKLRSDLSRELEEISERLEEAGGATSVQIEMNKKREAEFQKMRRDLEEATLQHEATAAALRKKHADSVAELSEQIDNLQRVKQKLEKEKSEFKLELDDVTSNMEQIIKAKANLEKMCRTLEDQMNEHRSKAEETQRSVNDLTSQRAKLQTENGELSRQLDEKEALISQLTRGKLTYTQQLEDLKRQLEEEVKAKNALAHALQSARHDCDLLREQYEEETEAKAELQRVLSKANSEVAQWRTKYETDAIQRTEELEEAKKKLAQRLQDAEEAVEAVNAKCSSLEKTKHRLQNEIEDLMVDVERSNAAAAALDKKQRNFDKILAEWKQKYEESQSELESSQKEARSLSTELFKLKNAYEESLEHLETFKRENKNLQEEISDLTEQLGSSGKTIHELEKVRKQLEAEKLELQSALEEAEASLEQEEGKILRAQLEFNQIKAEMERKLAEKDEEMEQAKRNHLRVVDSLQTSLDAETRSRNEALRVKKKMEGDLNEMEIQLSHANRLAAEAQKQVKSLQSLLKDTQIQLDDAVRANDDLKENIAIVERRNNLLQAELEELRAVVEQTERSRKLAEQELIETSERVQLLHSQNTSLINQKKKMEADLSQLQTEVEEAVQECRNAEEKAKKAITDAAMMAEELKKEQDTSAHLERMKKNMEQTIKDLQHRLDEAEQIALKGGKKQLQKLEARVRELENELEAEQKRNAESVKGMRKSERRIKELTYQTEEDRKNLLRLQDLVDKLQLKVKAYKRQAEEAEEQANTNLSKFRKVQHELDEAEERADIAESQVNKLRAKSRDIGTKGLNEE
T1 sequence (P85100 whole entry partner): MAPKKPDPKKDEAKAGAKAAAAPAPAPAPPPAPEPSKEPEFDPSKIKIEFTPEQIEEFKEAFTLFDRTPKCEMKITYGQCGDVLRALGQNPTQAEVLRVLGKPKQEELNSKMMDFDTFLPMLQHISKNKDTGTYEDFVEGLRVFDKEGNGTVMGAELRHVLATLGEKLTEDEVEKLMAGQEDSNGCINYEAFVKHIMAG
T1 sequence (Q3SZE5 whole entry partner): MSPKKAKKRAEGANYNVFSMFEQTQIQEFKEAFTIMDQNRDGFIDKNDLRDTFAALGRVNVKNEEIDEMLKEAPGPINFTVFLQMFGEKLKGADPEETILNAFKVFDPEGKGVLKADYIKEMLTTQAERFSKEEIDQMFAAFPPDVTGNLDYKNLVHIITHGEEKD
Text: We used systems of increasing complexity ranging from the isolated cardiac myosin motor domains (Fig. 3a) to synthetic thick filaments formed from purified full-length bovine cardiac myosin (Fig. 3b) and bovine cardiac myofibrils as substrates in the chase assays (Fig. 3c). In contrast to the isolated myosin motors, synthetic thick filaments contain two myosin head domains per molecule connected via their coiled-coil tail.
Synthetic thick filaments were freshly prepared by diluting full-length bovine cardiac myosin stock into assay buffer (composition in mmol L^−1: 15 PIPES pH 7, 5 MgCl2, 1 DTT) and incubation on ice for 2 h. Bovine myosin S1 and synthetic thick filament concentrations were adjusted to 0.4 μmol L^−1 with assay buffer and 40 μL aliquoted into individual wells of a black 384-well plate (Greiner). Mant-ATP (JenaBioscience) was added to each well to a final concentration of 0.4 μmol L^−1 using an automated injector unit in a ClarioStar Plate Reader (BMG LabTech) and the system was allowed to age for 1 min. The chase phase was started by adding a final concentration of 2 mmol L^−1 ATP using a second automated injector unit. Fluorescence intensity from each well was constantly measured for 15 min every 1 sec at 25 °C with the following settings: excitation at 360 nm with a 20 nm bandwidth and emission at 450 nm with a 20 nm bandwidth. For experiments with cardiac myofibrils the concentration was adjusted to 1 mg m L^−1, and the mant-ATP and ATP concentrations were increased to 20 μmol L^−1 and 20 mmol L^−1, respectively.

bovine cardiac myosin S1 = bovine cardiac myosin S1 (Bos taurus, UniProt Q9BE39); assay: mant-ATP chase single nucleotide turnover, myosin S1; conditions: for Representative Traces (mant-ATP chase, normalised signal): representative trace, sheet Figure 3a;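 for all read-outs here: 0.4 µM S1 preloaded with equimolar mant-ATP, chased by 2 mM ATP, mant fluorescence (ex 360, em 450 nm) read each second over 15 min at 25 °C, biexponential fit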
Sequence of bovine cardiac myosin S1 (Q9BE39 85-778 limits assumed): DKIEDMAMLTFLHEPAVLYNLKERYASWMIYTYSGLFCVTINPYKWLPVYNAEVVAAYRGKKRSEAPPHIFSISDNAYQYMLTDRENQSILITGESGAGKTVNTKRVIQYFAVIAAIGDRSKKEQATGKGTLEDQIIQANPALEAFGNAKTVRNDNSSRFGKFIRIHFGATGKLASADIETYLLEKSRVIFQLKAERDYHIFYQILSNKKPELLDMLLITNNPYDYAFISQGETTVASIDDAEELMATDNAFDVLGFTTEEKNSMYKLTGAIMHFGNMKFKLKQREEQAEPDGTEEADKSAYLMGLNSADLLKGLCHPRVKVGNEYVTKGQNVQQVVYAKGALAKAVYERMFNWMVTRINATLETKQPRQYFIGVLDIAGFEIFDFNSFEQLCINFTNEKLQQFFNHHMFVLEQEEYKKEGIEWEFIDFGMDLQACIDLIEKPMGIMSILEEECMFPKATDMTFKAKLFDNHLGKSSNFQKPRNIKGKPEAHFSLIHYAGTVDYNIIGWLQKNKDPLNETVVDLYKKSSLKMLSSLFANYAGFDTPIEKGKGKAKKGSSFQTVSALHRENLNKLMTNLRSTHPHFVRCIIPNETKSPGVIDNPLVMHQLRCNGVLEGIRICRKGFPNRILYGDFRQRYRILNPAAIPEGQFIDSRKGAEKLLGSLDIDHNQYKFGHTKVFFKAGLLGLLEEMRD
Sequence of bovine cardiac myosin S1 (P85100 whole entry partner): as the sequence (P85100 whole entry partner) above
Text: Chase of mant-ATP loaded cardiac myosin S1 with ATP leads to a decrease in the mant fluorescence intensity which is best described by a bi-exponential decay function with an initial fast phase followed by a second slower phase, corresponding to the so-called disordered (DRX) and super-relaxed state (SRX) of myosin, respectively.

[2] = Synthetic Myosin Filaments, individual replicates
[3] = Beta-cardiac myosin S1, individual replicates

CCc1cc2c(=O)n(NC(=S)NC(C)C)cnc2s1 [F10]
effect on the rate of the fast DRX phase [1]: no effect
Bar graph (Figure 3b, mant-ATP chase) ([1]; Figure 3b source data, individual replicate values): 60.72 and 53.1 and 55.77 and 61 and 84.67 and 56.52 and 70.86
Representative Traces (mant-ATP chase, fluorescence signal over time) ([1]; t = 796 s): 0.1829
Representative Traces (mant-ATP chase, fluorescence signal over time) ([1]; t = 797 s): 0.2272
kfast [1, 2]: 0.05914 s⁻¹ and 0.02268 s⁻¹ and 0.03788 s⁻¹ and 0.03196 s⁻¹ and 0.0963 s⁻¹ and 0.1619 s⁻¹
kslow [1, 2]: 0.004733 s⁻¹ and 0.003729 s⁻¹ and 0.003941 s⁻¹ and 0.001622 s⁻¹ and 0.001835 s⁻¹ and 0.001574 s⁻¹
slow phase [1, 2]: 53.1% and 55.77% and 61% and 84.67% and 56.52% and 70.86%
kslow ([1]; control 0.0046 ± 0.0007): 0.0027 ± 0.0005 s⁻¹
Slow Phase [%] (SRX amplitude) ([1]; control 22.9 ± 2.8): 63.2 ± 4.2% and ~63%
kfast ([1]; control […]): 0.0784 ± 0.0208 s⁻¹
kslow (bovine cardiac myosin S1; 2 μmol L^-1 Mavacamten or 20 μmol L^-1 F10, control 0.0058 ± 0.0010): 0.0014 ± 0.0002 s⁻¹
kfast (bovine cardiac myosin S1; [3]): 0.05055 s⁻¹ and 0.0447 s⁻¹ and 0.0368 s⁻¹ and 0.05306 s⁻¹ and 0.06378 s⁻¹ and 0.02378 s⁻¹
kslow (bovine cardiac myosin S1; [3]): 0.0006967 s⁻¹ and 0.00183 s⁻¹ and 0.001814 s⁻¹ and 0.000778 s⁻¹ and 0.001483 s⁻¹ and 0.001764 s⁻¹
slow phase (bovine cardiac myosin S1; [3]): 77.15% and 78.62% and 63.91% and 49.91% and 65.48% and 83.8%
Representative Traces, normalised fluorescence (bovine cardiac myosin S1; t 396 s): 0.3381
Representative Traces, normalised fluorescence (bovine cardiac myosin S1; t 397 s): 0.3913
Representative Traces, normalised fluorescence (bovine cardiac myosin S1; t 398 s): 0.3527
Representative Traces, normalised fluorescence (bovine cardiac myosin S1; t 399 s): 0.3731
Representative Traces, normalised fluorescence (bovine cardiac myosin S1; t 400 s): 0.3893
Representative Traces, normalised fluorescence (bovine cardiac myosin S1; t 401 s): 0.3649
Representative Traces, normalised fluorescence (bovine cardiac myosin S1; t 402 s): 0.346
Representative Traces, normalised fluorescence (bovine cardiac myosin S1; t 403 s): 0.3664
Representative Traces, normalised fluorescence (bovine cardiac myosin S1; t 404 s): 0.3754
Representative Traces, normalised fluorescence (bovine cardiac myosin S1; t 405 s): 0.395
Representative Traces, normalised fluorescence (bovine cardiac myosin S1; t 406 s): 0.3542
Representative Traces, normalised fluorescence (bovine cardiac myosin S1; t 407 s): 0.3529
Representative Traces, normalised fluorescence (bovine cardiac myosin S1; t 408 s): 0.371
Representative Traces, normalised fluorescence (bovine cardiac myosin S1; t 409 s): 0.3805
Representative Traces, normalised fluorescence (bovine cardiac myosin S1; t 410 s): 0.3829
Representative Traces, normalised fluorescence (bovine cardiac myosin S1; t 411 s): 0.3594
Representative Traces, normalised fluorescence (bovine cardiac myosin S1; t 412 s): 0.3318
Representative Traces, normalised fluorescence (bovine cardiac myosin S1; t 413 s): 0.3454
Representative Traces, normalised fluorescence (bovine cardiac myosin S1; t 414 s): 0.3732
Representative Traces, normalised fluorescence (bovine cardiac myosin S1; t 415 s): 0.3239
Representative Traces, normalised fluorescence (bovine cardiac myosin S1; t 416 s): 0.3536
Representative Traces, normalised fluorescence (bovine cardiac myosin S1; t 417 s): 0.3763
Representative Traces, normalised fluorescence (bovine cardiac myosin S1; t 418 s): 0.4062
Representative Traces, normalised fluorescence (bovine cardiac myosin S1; t 419 s): 0.3409
Representative Traces, normalised fluorescence (bovine cardiac myosin S1; t 420 s): 0.3417
Representative Traces, normalised fluorescence (bovine cardiac myosin S1; t 421 s): 0.3218
Representative Traces, normalised fluorescence (bovine cardiac myosin S1; t 422 s): 0.3761
Representative Traces, normalised fluorescence (bovine cardiac myosin S1; t 423 s): 0.3809
Representative Traces, normalised fluorescence (bovine cardiac myosin S1; t 424 s): 0.3886
Representative Traces, normalised fluorescence (bovine cardiac myosin S1; t 425 s): 0.4176
Representative Traces, normalised fluorescence (bovine cardiac myosin S1; t 426 s): 0.3716
Representative Traces, normalised fluorescence (bovine cardiac myosin S1; t 427 s): 0.348
Representative Traces, normalised fluorescence (bovine cardiac myosin S1; t 428 s): 0.3822
Representative Traces, normalised fluorescence (bovine cardiac myosin S1; t 429 s): 0.3572
Representative Traces, normalised fluorescence (bovine cardiac myosin S1; t 430 s): 0.3286
Representative Traces, normalised fluorescence (bovine cardiac myosin S1; t 431 s): 0.4152
Representative Traces, normalised fluorescence (bovine cardiac myosin S1; t 432 s): 0.3207
Representative Traces, normalised fluorescence (bovine cardiac myosin S1; t 433 s): 0.376
Representative Traces, normalised fluorescence (bovine cardiac myosin S1; t 434 s): 0.351
Representative Traces, normalised fluorescence (bovine cardiac myosin S1; t 435 s): 0.3814
Representative Traces, normalised fluorescence (bovine cardiac myosin S1; t 436 s): 0.3747
Representative Traces, normalised fluorescence (bovine cardiac myosin S1; t 437 s): 0.339
Representative Traces, normalised fluorescence (bovine cardiac myosin S1; t 438 s): 0.3394
Representative Traces, normalised fluorescence (bovine cardiac myosin S1; t 439 s): 0.2828
Representative Traces, normalised fluorescence (bovine cardiac myosin S1; t 440 s): 0.3588
Representative Traces, normalised fluorescence (bovine cardiac myosin S1; t 441 s): 0.3824
Representative Traces, normalised fluorescence (bovine cardiac myosin S1; t 442 s): 0.3473
Representative Traces, normalised fluorescence (bovine cardiac myosin S1; t 443 s): 0.3776
Representative Traces, normalised fluorescence (bovine cardiac myosin S1; t 444 s): 0.2942
Representative Traces, normalised fluorescence (bovine cardiac myosin S1; t 445 s): 0.3451
Representative Traces, normalised fluorescence (bovine cardiac myosin S1; t 446 s): 0.3599
Representative Traces, normalised fluorescence (bovine cardiac myosin S1; t 447 s): 0.3632
Representative Traces, normalised fluorescence (bovine cardiac myosin S1; t 448 s): 0.3962
Representative Traces, normalised fluorescence (bovine cardiac myosin S1; t 449 s): 0.3522
Representative Traces, normalised fluorescence (bovine cardiac myosin S1; t 450 s): 0.334
Representative Traces, normalised fluorescence (bovine cardiac myosin S1; t 451 s): 0.3312
Representative Traces, normalised fluorescence (bovine cardiac myosin S1; t 452 s): 0.3355
Representative Traces, normalised fluorescence (bovine cardiac myosin S1; t 453 s): 0.3202
Representative Traces, normalised fluorescence (bovine cardiac myosin S1; t 454 s): 0.3011
Representative Traces, normalised fluorescence (bovine cardiac myosin S1; t 455 s): 0.3492
Representative Traces, normalised fluorescence (bovine cardiac myosin S1; t 456 s): 0.2942
Representative Traces, normalised fluorescence (bovine cardiac myosin S1; t 457 s): 0.3901
Representative Traces, normalised fluorescence (bovine cardiac myosin S1; t 458 s): 0.3305
Representative Traces, normalised fluorescence (bovine cardiac myosin S1; t 459 s): 0.3712
Representative Traces, normalised fluorescence (bovine cardiac myosin S1; t 460 s): 0.3492
Representative Traces, normalised fluorescence (bovine cardiac myosin S1; t 461 s): 0.3691
Representative Traces, normalised fluorescence (bovine cardiac myosin S1; t 462 s): 0.3499
Representative Traces, normalised fluorescence (bovine cardiac myosin S1; t 463 s): 0.3959
Representative Traces, normalised fluorescence (bovine cardiac myosin S1; t 464 s): 0.3352
Representative Traces, normalised fluorescence (bovine cardiac myosin S1; t 465 s): 0.2964
Representative Traces, normalised fluorescence (bovine cardiac myosin S1; t 466 s): 0.3332
Representative Traces, normalised fluorescence (bovine cardiac myosin S1; t 467 s): 0.3397
Representative Traces, normalised fluorescence (bovine cardiac myosin S1; t 468 s): 0.2957
Representative Traces, normalised fluorescence (bovine cardiac myosin S1; t 469 s): 0.3164
Representative Traces, normalised fluorescence (bovine cardiac myosin S1; t 470 s): 0.3318
Representative Traces, normalised fluorescence (bovine cardiac myosin S1; t 471 s): 0.303
Representative Traces, normalised fluorescence (bovine cardiac myosin S1; t 472 s): 0.2843
Representative Traces, normalised fluorescence (bovine cardiac myosin S1; t 473 s): 0.3488
Representative Traces, normalised fluorescence (bovine cardiac myosin S1; t 474 s): 0.3514
Representative Traces, normalised fluorescence (bovine cardiac myosin S1; t 475 s): 0.3348
Representative Traces, normalised fluorescence (bovine cardiac myosin S1; t 476 s): 0.2621
Representative Traces, normalised fluorescence (bovine cardiac myosin S1; t 477 s): 0.3016
Representative Traces, normalised fluorescence (bovine cardiac myosin S1; t 478 s): 0.2808
Representative Traces, normalised fluorescence (bovine cardiac myosin S1; t 479 s): 0.2939
Representative Traces, normalised fluorescence (bovine cardiac myosin S1; t 480 s): 0.3383
Representative Traces, normalised fluorescence (bovine cardiac myosin S1; t 481 s): 0.3502
Representative Traces, normalised fluorescence (bovine cardiac myosin S1; t 482 s): 0.3436
Representative Traces, normalised fluorescence (bovine cardiac myosin S1; t 483 s): 0.4051
Representative Traces, normalised fluorescence (bovine cardiac myosin S1; t 484 s): 0.3367
Representative Traces, normalised fluorescence (bovine cardiac myosin S1; t 485 s): 0.376
Representative Traces, normalised fluorescence (bovine cardiac myosin S1; t 486 s): 0.3528
Representative Traces, normalised fluorescence (bovine cardiac myosin S1; t 487 s): 0.3472
Representative Traces, normalised fluorescence (bovine cardiac myosin S1; t 488 s): 0.3853
Representative Traces, normalised fluorescence (bovine cardiac myosin S1; t 489 s): 0.3935
Representative Traces, normalised fluorescence (bovine cardiac myosin S1; t 490 s): 0.3358
Representative Traces, normalised fluorescence (bovine cardiac myosin S1; t 491 s): 0.3169
Representative Traces, normalised fluorescence (bovine cardiac myosin S1; t 492 s): 0.3123
Representative Traces, normalised fluorescence (bovine cardiac myosin S1; t 493 s): 0.2845
Representative Traces, normalised fluorescence (bovine cardiac myosin S1; t 494 s): 0.2849
Representative Traces, normalised fluorescence (bovine cardiac myosin S1; t 495 s): 0.3259
Representative Traces (mant-ATP chase, normalised signal) (bovine cardiac myosin S1; t = 796 s): 0.1783
Representative Traces (mant-ATP chase, normalised signal) (bovine cardiac myosin S1; t = 797 s): 0.1159
